Source: patent US11077090B2, “Compounds and compositions and uses thereof” (Sunovion Pharmaceuticals Inc., priority 2016, dated 2021)
Read-outs that look alike come from different tables or passages of the source.

System: compound-treated mice
Assay: Neuropharmacological assay (SmartCube): behavioral activity signature and minimal effective dose
Format: in vivo
Conditions: for minimal effective dose: Mus musculus, ip, MED = dose having 50% or more total activity; for AD: ADHD (probability of activity signature) / AG: analgesic (probability of activity signature) / AX: anxiolytic (probability of activity signature) / CE: cognitive enhancer (probability of activity signature) / DP: anti-depressant (probability of activity signature) / MS: mood stabilizer (probability of activity signature) / PS: anti-psychotic (probability of activity signature) / SD: sedative hypnotic (probability of activity signature) / UN: uncharacterized CNS activity (probability of activity signature): i.p. 15 min before test, most efficacious dose(s)
In short: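 Video-recorded behavior is compared algorithmically against a reference-compound database, yielding class probabilities (best dose reported). Compounds given i.p. in NMP/PEG/propylene glycol 15 min pre-test at 3 doses; potency as MED, the dose (mpk, range usually 0.3–30) reaching ≥50% total activity.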

[1] = read-out: Potency: minimal effective dose (MED)
[2] = read-out: Potency: minimal effective dose (MED), binned

| Structure (SMILES) | minimal effective dose [1] | AD: ADHD (probability of activity signature) | AG: analgesic (probability of activity signature) | AX: anxiolytic (probability of activity signature) | CE: cognitive enhancer (probability of activity signature) | DP: anti-depressant (probability of activity signature) | MS: mood stabilizer (probability of activity signature) | PS: anti-psychotic (probability of activity signature) | SD: sedative hypnotic (probability of activity signature) | UN: uncharacterized CNS activity (probability of activity signature) | minimal effective dose [2] |
| --- | --- | --- | --- | --- | --- | --- | --- | --- | --- | --- | --- |
| Cc1ccc2c(c1)[C@H](N)[C@H](C)COC2.Cl (relative stereo) [Example 74, cis-4,7-dimethyl-1,3,4,5-tetrahydrobenzo [c]oxepin-5-amine hydrochloride] | 10 to 30 mg/kg | + (LOQ ≤ + <5%) | ++ (5% ≤ ++ <25%) | ++ (5% ≤ ++ <25%) | + (LOQ ≤ + <5%) | ++ (5% ≤ ++ <25%) | + (LOQ ≤ + <5%) | + (LOQ ≤ + <5%) | + (LOQ ≤ + <5%) | +++ (25% ≤ +++ <50%) |  |
| CCNC1COCc2ccc(C)c(C)c21.Cl (centres unmarked) [Example 58] | 3 to 10 mg/kg | + (LOQ ≤ + <5%) | ++ (5% ≤ ++ <25%) | ++ (5% ≤ ++ <25%) | ++ (5% ≤ ++ <25%) | ++ (5% ≤ ++ <25%) | + (LOQ ≤ + <5%) | ++ (5% ≤ ++ <25%) | ++ (5% ≤ ++ <25%) | +++ (25% ≤ +++ <50%) |  |
| C[C@H]1OCc2ccc(F)cc2[C@@H]1N [Example 183] |  | + (LOQ ≤ + <5%) | ++ (5% ≤ ++ <25%) | ++ (5% ≤ ++ <25%) | ++ (5% ≤ ++ <25%) | ++ (5% ≤ ++ <25%) | + (LOQ ≤ + <5%) | ++ (5% ≤ ++ <25%) | ++ (5% ≤ ++ <25%) | ++++ (50% ≤ ++++) | < 3 mg/kg |
| CCC[C@H]1OCc2ccccc2[C@@H]1N (single isomer, unassigned) [Example 251] |  | ++ (5% ≤ ++ <25%) | + (LOQ ≤ + <5%) | ++ (5% ≤ ++ <25%) | + (LOQ ≤ + <5%) | + (LOQ ≤ + <5%) | ++ (5% ≤ ++ <25%) | ++ (5% ≤ ++ <25%) | ++ (5% ≤ ++ <25%) | ++ (5% ≤ ++ <25%) | 3 to 10 mg/kg |
| COc1ccc2c(c1)CO[C@@H](C)[C@H]2N.Cl [Example 233] |  | + (LOQ ≤ + <5%) | ++ (5% ≤ ++ <25%) | ++ (5% ≤ ++ <25%) | ++ (5% ≤ ++ <25%) | + (LOQ ≤ + <5%) | + (LOQ ≤ + <5%) | + (LOQ ≤ + <5%) | + (LOQ ≤ + <5%) | + (LOQ ≤ + <5%) | > 30 mg/kg |
| CCN(C)C(=O)Oc1ccc2c(c1)C(N)COC2.Cl (centres unmarked) [Example 277, 4-Aminoisochroman-6-yl ethyl(methyl)carbamate hydrochloride] |  | + (LOQ ≤ + <5%) | + (LOQ ≤ + <5%) | + (LOQ ≤ + <5%) | + (LOQ ≤ + <5%) | + (LOQ ≤ + <5%) | + (LOQ ≤ + <5%) | + (LOQ ≤ + <5%) | + (LOQ ≤ + <5%) | + (LOQ ≤ + <5%) | > 30 mg/kg |
| C[C@@H]1OCc2ccccc2[C@@H]1N (single isomer, unassigned) [Example 153] | 3 to 10 mg/kg | + (LOQ ≤ + <5%) | ++ (5% ≤ ++ <25%) | ++ (5% ≤ ++ <25%) | ++ (5% ≤ ++ <25%) | + (LOQ ≤ + <5%) | + (LOQ ≤ + <5%) | ++ (5% ≤ ++ <25%) | + (LOQ ≤ + <5%) | +++ (25% ≤ +++ <50%) |  |
| CCC[C@@H]1OCc2ccccc2[C@@H]1N [Example 250] |  | ++ (5% ≤ ++ <25%) | + (LOQ ≤ + <5%) | ++ (5% ≤ ++ <25%) | + (LOQ ≤ + <5%) | + (LOQ ≤ + <5%) | ++ (5% ≤ ++ <25%) | ++ (5% ≤ ++ <25%) | ++ (5% ≤ ++ <25%) | + (LOQ ≤ + <5%) | 3 to 10 mg/kg |
| CCCN[C@H]1c2ccccc2CO[C@H]1C.Cl [Example 272] |  | + (LOQ ≤ + <5%) | + (LOQ ≤ + <5%) | ++ (5% ≤ ++ <25%) | + (LOQ ≤ + <5%) | + (LOQ ≤ + <5%) | ++ (5% ≤ ++ <25%) | ++ (5% ≤ ++ <25%) | ++ (5% ≤ ++ <25%) | ++ (5% ≤ ++ <25%) | 3 to 10 mg/kg |
| C[C@H]1OCc2cccc(F)c2[C@@H]1N.Cl [Example 216] |  | + (LOQ ≤ + <5%) | ++ (5% ≤ ++ <25%) | ++ (5% ≤ ++ <25%) | + (LOQ ≤ + <5%) | ++ (5% ≤ ++ <25%) | + (LOQ ≤ + <5%) | + (LOQ ≤ + <5%) | + (LOQ ≤ + <5%) | ++++ (50% ≤ ++++) | 3 to 10 mg/kg |
| Cl.NC1COCc2ccc3c(c21)CCCC3 (centres unmarked) [Example 19, 2,4,7,8,9,10-Hexahydro-1H-benzo[f]isochromen-1-amine hydrochloride] | 10 to 30 mg/kg | + (LOQ ≤ + <5%) | ++ (5% ≤ ++ <25%) | +++ (25% ≤ +++ <50%) | ++ (5% ≤ ++ <25%) | + (LOQ ≤ + <5%) | + (LOQ ≤ + <5%) | ++ (5% ≤ ++ <25%) | ++ (5% ≤ ++ <25%) | +++ (25% ≤ +++ <50%) |  |
